# Source: BindingDB's records for doi:10.1021/jm00063a011 (Kyowa Hakko Kogyo, 1993)
# pIC50: −log10 of the molar value.
# How the values were obtained:
# [1] = target: Thromboxane-A synthase (Bos taurus); assay: Activity against TXA2 synthase in bovine platelet microsome
# [2] = as above
Structure (SMILES),pIC50 [1],pIC50 [2]
C/C(=C\c1ccc(Cc2cccnc2)cc1)C(=O)O [Sodium; (E)-2-methyl-3-(4-pyridin-3-ylmethyl-phenyl)-acrylate],8.37,–
"O=C(O)c1ccc2c(c1)C(SCc1cccnc1)c1ccccc1CO2 (stereo not drawn) [11-(Pyridin-3-ylmethylsulfanyl)-6,11-dihydro-dibenzo[b,e]oxepine-2-carboxylic acid]",8.40,6.40
